Laboratory results taken from patent publication US20230416227A1, “PLASMA KALLIKREIN INHIBITORS” (Merck Sharp & Dohme LLC, priority 2020, published 2023).

Tests used:
Human plasma kallikrein = biological target: T1, Human plasma kallikrein (Homo sapiens, UniProt P03952); test: Plasma Kallikrein Assay; type: biochemical; settings: purified Human plasma kallikrein 0.5 nM, substrate Acetyl-K-P-R-AFC, pH 7.4
T1 construct: yields a heavy chain (371 amino acids) and a light chain (248 amino acids); purchased Enzyme Research Laboratories
T1 sequence (P03952 391-638 limits assumed): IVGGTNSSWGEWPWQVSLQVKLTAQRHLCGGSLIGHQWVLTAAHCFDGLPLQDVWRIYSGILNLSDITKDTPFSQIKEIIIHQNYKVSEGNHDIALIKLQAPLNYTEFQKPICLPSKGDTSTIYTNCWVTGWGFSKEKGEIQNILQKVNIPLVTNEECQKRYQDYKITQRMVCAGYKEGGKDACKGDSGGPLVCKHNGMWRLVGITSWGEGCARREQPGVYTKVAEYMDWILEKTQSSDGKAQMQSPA
T1 sequence (P03952 20-390 partner limits assumed): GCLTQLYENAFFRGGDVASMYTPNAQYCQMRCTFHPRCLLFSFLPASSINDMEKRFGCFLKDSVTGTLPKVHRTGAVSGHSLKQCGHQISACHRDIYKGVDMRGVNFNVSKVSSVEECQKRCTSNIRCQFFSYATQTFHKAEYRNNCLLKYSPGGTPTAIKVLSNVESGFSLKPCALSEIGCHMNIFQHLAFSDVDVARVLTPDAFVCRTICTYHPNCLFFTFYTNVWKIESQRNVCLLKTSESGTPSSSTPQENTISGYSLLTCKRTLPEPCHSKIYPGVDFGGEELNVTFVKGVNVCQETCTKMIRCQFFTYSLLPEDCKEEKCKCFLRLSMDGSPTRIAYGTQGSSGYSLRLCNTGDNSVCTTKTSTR

human factor XIa = human factor XIa (Homo sapiens, UniProt P03951); test: Factor XIa Assay; type: biochemical; settings: human factor XIa 0.04 nM, substrate GPR-AFC, 30 min pre-incubation at 25° C., pH 7.4; read-out: FXIa IC50
Chain of human factor XIa (P03951 388-625 limits assumed): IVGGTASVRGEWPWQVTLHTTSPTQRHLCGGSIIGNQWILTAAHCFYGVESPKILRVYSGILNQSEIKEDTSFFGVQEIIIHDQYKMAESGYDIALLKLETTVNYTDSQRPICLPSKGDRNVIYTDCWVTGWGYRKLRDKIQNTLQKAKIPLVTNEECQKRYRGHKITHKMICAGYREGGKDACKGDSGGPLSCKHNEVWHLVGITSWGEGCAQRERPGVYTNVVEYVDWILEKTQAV
Chain of human factor XIa (P03951 19-387 partner limits assumed): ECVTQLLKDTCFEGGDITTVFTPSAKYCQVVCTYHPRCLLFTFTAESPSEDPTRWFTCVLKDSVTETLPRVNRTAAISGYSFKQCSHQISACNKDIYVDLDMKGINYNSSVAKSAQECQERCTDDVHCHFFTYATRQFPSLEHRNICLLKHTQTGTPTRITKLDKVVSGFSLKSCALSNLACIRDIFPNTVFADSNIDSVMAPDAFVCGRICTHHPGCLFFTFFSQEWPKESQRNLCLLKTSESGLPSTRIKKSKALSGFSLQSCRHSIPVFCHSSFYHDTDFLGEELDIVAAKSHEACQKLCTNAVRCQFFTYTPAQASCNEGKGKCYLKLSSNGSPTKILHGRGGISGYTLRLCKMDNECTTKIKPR
Experimental: The effectiveness of a compound of the present invention as an inhibitor of Coagulation factor XIa can be determined using a relevant purified serine protease, and an appropriate synthetic substrate. The rate of hydrolysis of the chromogenic or fluorogenic substrate by the relevant serine protease was measured both in the absence and presence of compounds of the present invention. Assays were conducted at rt or at 37° C. […] A decrease in the rate of fluorescence change in the presence of inhibitor is indicative of enzyme inhibition. Such methods are known to one skilled in the art. The results of this assay are expressed as the half-maximal inhibitory concentrations (IC50), or the inhibitory constant, Ki.
Compounds were pre-incubated for 30 min at 25° C. with human (0.04 nM) factor XIa in 50 mM HEPES buffer with 150 mM sodium chloride, 5 mM calcium chloride, 0.1% PEG 8000, pH 7.4. factor XIa enzymatic activity was determined by addition of the substrate glycine-proline-arginine-7-amido-4-trifluoromethylcoumarin (GPR-AFC) and measurement of the fluorescence at 400/505 nm after a 60 min incubation at 25° C. The % inhibition for each data point was calculated from the data and analyzed using the log (inhibitor) vs. response four parameters equation to determine the half-maximal inhibitory concentrations (IC50). The IC50 were converted to equilibrium inhibitory constants (Ki) using the Cheng-Prusoff equation.

| SMILES | IC50 (Human plasma kallikrein) [µM] | IC50 (human factor XIa) [µM] |
| --- | --- | --- |
| O=C(Nc1cnn(Cc2cnc(N3C[C@H]4C[C@H]4[C@H]3CN3CC(O)(C(F)(F)F)C3)nc2)c1)c1cncc(-c2c(C(F)F)ccc(Cl)c2F)n1 [Example 155, 6-(3-Chloro-6-(difluoromethyl)-2-fluorophenyl)-N-(1-((2-((1R,2S,5S)-2-((3-hydroxy-3-(trifluoromethyl)azetidin-1-yl)methyl)-3-azabicyclo[3.1.0]hexan-3-yl)pyrimidin-5-yl)methyl)-1H-pyrazol-4-yl)pyrazine-2-carboxamide] | 0.0018 | 3.68 |
| [2H]C(C)(c1cnc(N2CCC2)nc1)n1cc(NC(=O)c2cncc(-c3c(C(F)F)ccc(Cl)c3F)n2)cn1 (single isomer, unassigned) [Example 43, (R or S)-N-(1-(1-(2-(azetidin-1-yl)pyrimidin-5-yl)ethyl-1-d)-1H-pyrazol-4-yl)-6-(3-chloro-6-(difluoromethyl)-2-fluorophenyl)pyrazine-2-carboxamide] | 0.0195 | 1.17 |
| CO[C@H]1CN(C[C@@H]2CCN2c2ncc(C(C)n3cc(NC(=O)c4cncc(-c5c(C(F)F)ccc(Cl)c5F)n4)cn3)cn2)C[C@@H]1O (stereo partly drawn) [Example 165, 6-(3-Chloro-6-(difluoromethyl)-2-fluorophenyl)-N-(1-(1-(2-((S)-2-(((3S,4S)-3-hydroxy-4-methoxypyrrolidin-1-yl)methyl)azetidin-1-yl)pyrimidin-5-yl)ethyl)-1H-pyrazol-4-yl)pyrazine-2-carboxamide] | 0.0014 | 4.27 |
| N#Cc1cc(N2CCC2)ncc1Cn1cc(NC(=O)c2cncc(-c3c(C(F)F)ccc(Cl)c3F)n2)cn1 [Example 16, N-(1-((6-(Azetidin-1-yl)-4-cyanopyridin-3-yl)methyl)-1H-pyrazol-4-yl)-6-(3-chloro-6-(difluoromethyl)-2-fluorophenyl)pyrazine-2-carboxamide] | 0.0084 | 1.05 |
| C[C@@H](c1cnc(N2CCC2)nc1)n1cc(NC(=O)c2cncc(-c3c(C(F)(F)F)ccc(Cl)c3F)n2)cn1 (single isomer, unassigned) [Example 55] | 0.0244 | 3.94 |
| CC(c1cnc(N2CC3CC3C2)nc1)n1cc(NC(=O)c2nc(-c3c(C(F)F)ccc(Cl)c3F)cnc2N(C)C)cn1 (single isomer, unassigned) [Example 34, N-(1-((1R or 1S)-1-(2-(3-azabicyclo[3.1.0]hexan-3-yl)pyrimidin-5-yl)ethyl)-1H-pyrazol-4-yl)-6-(3-chloro-6-(difluoromethyl)-2-fluorophenyl)-3-(dimethylamino)pyrazine-2-carboxamide] | 0.0281 | 3.33 |
| CC(c1cnc(N2CC[C@H]2[C@@H](C)N2C[C@@H](O)[C@@H](O)C2)nc1)n1cc(NC(=O)c2cncc(-c3c(C(F)F)ccc(Cl)c3F)n2)cn1 (stereo partly drawn) [Example 187, 6-(3-Chloro-6-(difluoromethyl)-2-fluorophenyl)-N-(1-(1-(2-((S)-2-((R)-1-((3R,4S)-3,4-dihydroxypyrrolidin-1-yl)ethyl)azetidin-1-yl)pyrimidin-5-yl)ethyl)-1H-pyrazol-4-yl)pyrazine-2-carboxamide] | 0.001 | 3.33 |
| CC1(O)CCN(C[C@@H]2CCCN2c2ncc(Cn3cc(NC(=O)c4cncc(-c5c(C(F)F)ccc(Cl)c5F)n4)cn3)cn2)C1 (stereo partly drawn) [Example 144, 6-(3-Chloro-6-(difluoromethyl)-2-fluorophenyl)-N-(1-((2-((2S)-2-((3-hydroxy-3-methylpyrrolidin-1-yl)methyl)pyrrolidin-1-yl)pyrimidin-5-yl)methyl)-1H-pyrazol-4-yl)pyrazine-2-carboxamide] | 0.0004 | 2.34 |
| O=C(Nc1cnn(Cc2cnc(N3CCC3)nc2)c1)c1nc(-c2c(C(F)F)ccc(Cl)c2F)cnc1C(F)F [Example 136, N-(1-((2-(Azetidin-1-yl)pyrimidin-5-yl)methyl)-1H-pyrazol-4-yl)-6-(3-chloro-6-(difluoromethyl)-2-fluorophenyl)-3-(difluoromethyl)pyrazine-2-carboxamide] | 0.0086 | 0.838 |
| O=C(Nc1cnn(Cc2ccc(N3CCC3)nc2)c1)c1cncc(-c2c(OC(F)F)ccc(Cl)c2F)n1 [Example 63, N-(1-((6-(Azetidin-1-yl)pyridin-3-yl)methyl)-1H-pyrazol-4-yl)-6-(3-chloro-6-(difluoromethoxy)-2-fluorophenyl)pyrazine-2-carboxamide] | 0.0173 | 5.04 |
| O=C(Nc1cnn(Cc2cnc(N3CCC3)nc2)c1)c1cncc(-c2c(OC(F)F)ccc(Cl)c2F)n1 [Example 64, N-(1-((2-(Azetidin-1-yl)pyrimidin-5-yl)methyl)-1H-pyrazol-4-yl)-6-(3-chloro-6-(difluoromethoxy)-2-fluorophenyl)pyrazine-2-carboxamide] | 0.0096 | 0.292 |
| O=C(Nc1cnn(Cc2cnc(N3C[C@H]4C[C@H]4[C@H]3CN[C@H]3CCC[C@@H]3O)nc2)c1)c1cncc(-c2c(C(F)F)ccc(Cl)c2F)n1 [Example 149, 6-(3-Chloro-6-(difluoromethyl)-2-fluorophenyl)-N-(1-((2-((1R,2S,5S)-2-((((1S,2S)-2-hydroxycyclopentyl)amino)methyl)-3-azabicyclo[3.1.0]hexan-3-yl)pyrimidin-5-yl)methyl)-1H-pyrazol-4-yl)pyrazine-2-carboxamide] |  | 1.48 |
| CC(c1cnc(N2C[C@H]3C[C@H]3C2C(=O)N(C)C)nc1)n1cc(NC(=O)c2cncc(-c3c(C(F)F)ccc(Cl)c3F)n2)cn1 (single isomer, unassigned) [Example 203, (1R,2S,5S or 1S,2R,5R)-3-(5-((S or R)-1-(4-(6-(3-Chloro-6-(difluoromethyl)-2-fluorophenyl)pyrazine-2-carboxamido)-1H-pyrazol-1-yl)ethyl)pyrimidin-2-yl)-N,N-dimethyl-3-azabicyclo[3.1.0]hexane-2-carboxamide] | 0.0778 |  |
| O=C(Nc1cnn(Cc2ccc(N3CC4C(C3)C4(F)F)nc2)c1)c1cncc(-c2c(C(F)F)ccc(Cl)c2F)n1 (stereo not shown) [Example 127, 6-(3-Chloro-6-(difluoromethyl)-2-fluorophenyl)-N-(1-((6-(6,6-difluoro-3-azabicyclo[3.1.0]hexan-3-yl)pyridin-3-yl)methyl)-1H-pyrazol-4-yl)pyrazine-2-carboxamide] | 0.0313 |  |
| CC(c1cnc(N2CC[C@H]2[C@@H](C)N[C@@H]2CCC[C@H]2O)nc1)n1cc(NC(=O)c2cncc(-c3c(C(F)F)ccc(Cl)c3F)n2)cn1 (stereo partly drawn) [Example 193, 6-(3-Chloro-6-(difluoromethyl)-2-fluorophenyl)-N-(1-(1-(2-((S)-2-((R)-1-(((1R,2R)-2-hydroxycyclopentyl)amino)ethyl)azetidin-1-yl)pyrimidin-5-yl)ethyl)-1H-pyrazol-4-yl)pyrazine-2-carboxamide] | 0.0081 |  |
| CC(c1cnc(N2CCC[C@@H]2C(N)=O)nc1)n1cc(NC(=O)c2cncc(-c3c(C(F)F)ccc(Cl)c3F)n2)cn1 (mixture of isomers) [Example 104, N-(1-((R and S)-1-(2-((R)-2-Carbamoylpyrrolidin-1-yl)pyrimidin-5-yl)ethyl)-1H-pyrazol-4-yl)-6-(3-chloro-6-(difluoromethyl)-2-fluorophenyl)pyrazine-2-carboxamide] | 0.0329 |  |
| CC(N)C1CCCN1c1ncc(Cn2cc(NC(=O)c3cncc(-c4c(C(F)F)ccc(Cl)c4F)n3)cn2)cn1 (single isomer, unassigned) [Example 156, N-(1-((2-(2-(1-Aminoethyl)pyrrolidin-1-yl)pyrimidin-5-yl)methyl)-1H-pyrazol-4-yl)-6-(3-chloro-6-(difluoromethyl)-2-fluorophenyl)pyrazine-2-carboxamide] | 0.0073 |  |
| CC(c1cnc(N2CC[C@H]2[C@@H](C)N2CC(C(C)(C)O)C2)nc1)n1cc(NC(=O)c2cncc(-c3c(C(F)F)ccc(Cl)c3F)n2)cn1 (stereo partly drawn) [Example 191, 6-(3-Chloro-6-(difluoromethyl)-2-fluorophenyl)-N-(1-(1-(2-((S)-2-((R)-1-(3-(2-hydroxypropan-2-yl)azetidin-1-yl)ethyl)azetidin-1-yl)pyrimidin-5-yl)ethyl)-1H-pyrazol-4-yl)pyrazine-2-carboxamide] | 0.0011 |  |
| COC[C@@H]1CCCN1c1ccc(Cn2cc(NC(=O)c3cncc(-c4c(C(F)F)ccc(Cl)c4F)n3)cn2)cn1 [Example 120, (S)-6-(3-Chloro-6-(difluoromethyl)-2-fluorophenyl)-N-(1-((6-(2-(methoxymethyl)pyrrolidin-1-yl)pyridin-3-yl)methyl)-1H-pyrazol-4-yl)pyrazine-2-carboxamide] | 0.0178 |  |
| CC(c1cnc(N2CC[C@H]2[C@@H](C)N2CC[C@H](O)[C@@H]2C)nc1)n1cc(NC(=O)c2cncc(-c3c(C(F)F)ccc(Cl)c3F)n2)cn1 (stereo partly drawn) [Example 185, 6-(3-Chloro-6-(difluoromethyl)-2-fluorophenyl)-N-(1-(1-(2-((S)-2-((R)-1-((2S,3S)-3-hydroxy-2-methylpyrrolidin-1-yl)ethyl)azetidin-1-yl)pyrimidin-5-yl)ethyl)-1H-pyrazol-4-yl)pyrazine-2-carboxamide] | 0.0015 |  |
